Experimental data taken from patent US20090291964A1, “Potentiators of Antibacterial Activity” (priority 2003, published 2009).
Like-named read-outs stand apart in the source and are kept apart here. Marks after values point to notes of the source that are not given here.

Experiments:
Format in all cases: cell-based
[1] = system: S. aureus SA-K2068 (non-NorA multidrug efflux pump overproducing); assay: microbe, parasite or virus in culture; details: for MIC: Staphylococcus aureus, read-out: MIC of EtBr with EPI; for Fold-reduction in MIC: gatifloxacin, S. aureus K2068 (nonNorA pump overproducer)
Excerpt: (§1) A variety of strains may be used in these experiments, including, but not limited to, S. aureus ATCC 29213, E. faecalis ATCC 29212, and S. pneumoniae, S. aureus strains SA-1199, SA-1199B, SA-8325-4, and SA-K2068. S. aureus ATCC 29213, E. faecalis ATCC 29212, and S. pneumoniae ATCC 10015 were obtained from the American Type Culture Collection (Manassas, Va.). S. aureus strains SA-1199 (clinical isolate, susceptible), SA-1199B (SA-1199, NorA overproducing, also has A116E GrlA mutation), SA-8325-4 (NCTC 8325 cured of prophages), SA-K2068 (SA-8325-4, non-NorA multidrug efflux pump overproducing mutation) were obtained from Glenn Kaatz (Kaatz et al., “Identification and characterization of a novel efflux-related multidrug resistance phenotype in Staphylococcus aureus”, J. Antimicrob. Chemother. 50:833-838 (2002); 1993; Kaatz et al., “Phenothiazines and thioxanthenes inhibit multidrug efflux pump activity in Staphylococcus aureus”, Antimicrob. Agents Chemother. 47:719-726, Kaatz et al., “Efflux-mediated fluoroquinolone resistance in Staphylococcus aureus. Antimicrob. Agents Chemother.”, 37:1086-1094, 1993)).
(§2) 3% sterile laked horse blood (Quad Five, Ryegate, Mont.) was added to assays for E. faecalis and S. Pneumoniae. A final concentration of 1% DMSO was present in all assays.
(§3) Recent more hydrophobic fluoroquinolones such as gatifloxacin and moxifloxacin are less well recognized by NorA; however, recently one other pump in S. aureus has been described which also recognizes hydrophobic fluoroquinolones (Kaatz et al. 2002, supra). To investigate the potential of A-106 and C-9 to block the efflux of several fluoroquinolones in cells with constituitively over-expressed efflux pumps, we used S. aureus strains SA-1199B and K2068 (Table 3). […] Kaatz et al., “Phenothiazines and thioxanthenes inhibit multidrug efflux pump activity in Staphylococcus aureus”, Antimicrob. Agents Chemother. 47:719-726 (2003).

S. aureus ATCC 29213 [2] = assay: MIC by NCCLS microdilution, antibacterial agents with and without EPI; details: for MIC: Staphylococcus aureus; for Fold-reduction in MIC: gatifloxacin
Experimental: 3% sterile laked horse blood (Quad Five, Ryegate, Mont.) was added to assays for E. faecalis and S. Pneumoniae. A final concentration of 1% DMSO was present in all assays. […]
A-106 and C-9 were tested at their respective MECs in combination with a variety of different classes of antibiotics against S. aureus ATCC 29213 (Table 2).

S. pneumoniae ATCC 10015 [3] = assay: Minimal effective concentration (MEC) of EPI for EtBr; details: lowest amount of EPI which produces the maximum effect on the MIC of ethidium bromide (reserpine: maximal subinhibitory concentration)
Experimental: (§4) The MEC was determined as the minimal concentration of EPI that produced the maximal reduction in substrate MIC.
(§5) The minimum effective concentration (MEC) for inhibition of EtBr efflux was determined in S. aureus, E. faecalis and S. pneumoniae for A-106 and C-9; reserpine was used as a comparator (Table 1).

S. aureus ATCC 29213 [4] = assay: as above; details: S. aureus ATCC 29213; lowest amount of EPI which produces the maximum effect on the MIC of ethidium bromide
Experimental: as §4, §5

E. faecalis ATCC 29212 [5] = assay: as above; details: lowest amount of EPI which produces the maximum effect on the MIC of ethidium bromide
Experimental: as §4, §5

S. pneumoniae ATCC 10015 [6] = assay: MIC by NCCLS microdilution, EtBr/EPI with and without EPI; details: for MIC: Streptococcus pneumoniae, ATCC10015
Experimental: as §2
(§6) EtBr is a general substrate for many different efflux pumps in bacteria. Markham et al., “Multiple Novel Inhibitors of the NorA Multidrug Transporter of Staphylococcus aureus”, Antimicrob. Agents Chemother. 43:2404-2408 (1999). Since EtBr is a non-specific DNA intercalator, the only known mechanism of resistance to EtBr is via efflux. Markham et al., “Multiple Novel Inhibitors of the NorA Multidrug Transporter of Staphylococcus aureus”, Antimicrob. Agents Chemother. 43:2404-2408 (1999).

E. faecalis ATCC 29212 [7] = assay: as above; details: for Fold-reduction in EtBr MIC / MIC: E. faecalis ATCC 29212; for MIC: Enterococcus faecalis, ATCC29212
Experimental: as §2, §6

[8] = system: S. aureus SA-1199B (NorA overproducing); assay: MIC of fluoroquinolones with and without EPI; details: for MIC: Staphylococcus aureus, read-out: MIC of EtBr with EPI; for Fold-reduction in MIC: gatifloxacin, S. aureus SA-1199B (NorA overproducer)
Excerpt: as §1, §2, §3

[9] = K2068, EPIs at 4 times MEC for EtBr, A-106 at 100 μg/ml
[10] = S. aureus K2068 (nonNorA pump overproducer) (Table 4)
[11] = S. aureus K2068, EPI at 4X the MEC for EtBr, VX-710 at 100 μg/ml
[12] = S. aureus ATCC 29213, EPI at 4X the MEC for EtBr, VX-710 at 100 μg/ml
[13] = S. aureus ATCC 29213, EPIs used at the MEC, except VX-710 at 100 μg/ml
[14] = S. pneumoniae ATCC 10015, EPIs used at the MEC, except VX-710 at 100 μg/ml
[15] = S. pneumoniae ATCC 10015, EPI alone, read-out: MIC of EPI
[16] = S. pneumoniae ATCC 10015, EPIs used at the MEC, except VX-710 at 100 μg/ml, read-out: MIC of EtBr with EPI
[17] = EPIs used at the MEC, except VX-710 at 100 μg/ml
[18] = EPI alone, read-out: MIC of EPI
[19] = EPIs used at the MEC, except VX-710 at 100 μg/ml, read-out: MIC of EtBr with EPI
[20] = S. aureus SA-1199B (NorA overproducer) (Table 4)
[21] = S. aureus SA-1199B, EPI at 4X the MEC for EtBr, VX-710 at 100 μg/ml
[22] = SA-1199B, EPIs at 4 times MEC for EtBr, A-106 at 100 μg/ml

## COc1cc(C(=O)C(=O)N(C)[C@@H](Cc2ccc(Cl)cc2)C(=O)N(Cc2ccccc2)C(CCc2ccncc2)CCc2ccncc2)cc(OC)c1OC [C-9, (S)—N-Benzyl-2-(methyl-(2-oxo-2-(3,4,5-trimethoxyphenyl)acetyl)amino)-3-(4-chloro-phenyl)-N-(3-pyridin-4-yl-1-(2-pyridin-4-yl-ethyl)propyl)propionamide]
[1]; [9]
  reduction of MIC of ciprofloxacin: 8 fold
  reduction of MIC of gatifloxacin: 4 fold
  reduction of MIC of levofloxacin: 2 fold
  reduction of MIC of norfloxacin: 8 fold
[1]; [10]
  MIC of gatifloxacin with EPI: 0.5 µg/mL
[1]; [11]
  MIC of ciprofloxacin with EPI: 1 µg/mL
  MIC of gatifloxacin with EPI: 0.5 µg/mL
  MIC of gentamicin with EPI: 0.063 µg/mL
  MIC of levofloxacin with EPI: 0.5 µg/mL
  MIC of norfloxacin with EPI: 4 µg/mL
[1]
  MIC: 3.1 µg/mL
  Fold-reduction in MIC: 2
S. aureus ATCC 29213 [2]; S. aureus ATCC 29213 (Table 4)
  MIC of gatifloxacin with EPI: 0.125 µg/mL
S. aureus ATCC 29213 [2]; [12]
  MIC of ciprofloxacin with EPI: 0.125 µg/mL
  MIC of gatifloxacin with EPI: 0.063 µg/mL
  MIC of gentamicin with EPI: 0.125 µg/mL
  MIC of levofloxacin with EPI: 0.125 µg/mL
  MIC of norfloxacin with EPI: 0.5 µg/mL
S. aureus ATCC 29213 [2]; [13]
  Fold-reduction in EtBr MIC: 4
S. aureus ATCC 29213 [2]; S. aureus wild type, EPI up to 100 μg/ml, data not shown
  reduction of the MIC of EtBr: 30 fold
S. aureus ATCC 29213 [2]; ATCC29213, read-out: MIC of EPI, S. aureus ATCC 29213, EPI alone
  MIC: > 100 µg/mL
S. aureus ATCC 29213 [2]; ATCC29213, read-out: MIC of EtBr with EPI, S. aureus ATCC 29213, EPI at 4X the MEC for EtBr, VX-710 at 100 μg/ml
  MIC: 0.8 µg/mL
S. aureus ATCC 29213 [2]; ATCC29213, read-out: MIC of EtBr with EPI, S. aureus ATCC 29213, EPIs used at the MEC, except VX-710 at 100 μg/ml
  MIC: 1.6 µg/mL
S. aureus ATCC 29213 [2]; S. aureus ATCC 29213
  Fold-reduction in MIC: 1
S. aureus ATCC 29213 [2]; wild type strain ATCC 29213
  effect of EPI on the MIC of gatifloxacin: unaffected
S. pneumoniae ATCC 10015 [3]
  MEC of EPI: 12.5 µg/mL
S. aureus ATCC 29213 [4]
  MEC of EPI: 1.6 µg/mL
E. faecalis ATCC 29212 [5]
  MEC of EPI: 6.3 µg/mL
S. pneumoniae ATCC 10015 [6]; [14]
  Fold-reduction in EtBr MIC: 2
S. pneumoniae ATCC 10015 [6]; [15]
  MIC: > 100 µg/mL
S. pneumoniae ATCC 10015 [6]; [16]
  MIC: 1 µg/mL
S. pneumoniae ATCC 10015 [6]; at 100 μg/ml, S. pneumoniae
  intrinsic antibacterial activity of EPI: no intrinsic antibacterial activity
E. faecalis ATCC 29212 [7]; [17]
  Fold-reduction in EtBr MIC: 2
E. faecalis ATCC 29212 [7]; [18]
  MIC: > 100 µg/mL
E. faecalis ATCC 29212 [7]; [19]
  MIC: 3.1 µg/mL
E. faecalis ATCC 29212 [7]; at 100 μg/ml, E. faecalis
  intrinsic antibacterial activity of EPI: no intrinsic antibacterial activity
[8]; [20]
  MIC of gatifloxacin with EPI: 0.25 µg/mL
[8]; [21]
  MIC of ciprofloxacin with EPI: 2 µg/mL
  MIC of gatifloxacin with EPI: 0.25 µg/mL
  MIC of gentamicin with EPI: 0.125 µg/mL
  MIC of levofloxacin with EPI: 1 µg/mL
  MIC of norfloxacin with EPI: 8 µg/mL
[8]; [22]
  reduction of MIC of ciprofloxacin: 8 fold
  reduction of MIC of gatifloxacin: 4 fold
  reduction of MIC of levofloxacin: 2 fold
  reduction of MIC of norfloxacin: 32 fold
[8]
  MIC: 3.1 µg/mL
  Fold-reduction in MIC: 2

## COC(=O)[C@H]1[C@H]2C[C@@H]3c4[nH]c5cc(OC)ccc5c4CCN3C[C@H]2C[C@@H](OC(=O)c2cc(OC)c(OC)c(OC)c2)[C@@H]1OC [reserpine, reference compound]
[1]; [10]
  MIC of gatifloxacin with EPI: 0.25 µg/mL
[1]; [11]
  MIC of ciprofloxacin with EPI: 0.5 µg/mL
  MIC of gatifloxacin with EPI: 0.25 µg/mL
  MIC of gentamicin with EPI: 0.063 µg/mL
  MIC of levofloxacin with EPI: 0.5 µg/mL
  MIC of norfloxacin with EPI: 1 µg/mL
[1]
  MIC: 1.6 µg/mL
  Fold-reduction in MIC: 4
S. aureus ATCC 29213 [2]; S. aureus ATCC 29213 (Table 4)
  MIC of gatifloxacin with EPI: 0.125 µg/mL
S. aureus ATCC 29213 [2]; [12]
  MIC of ciprofloxacin with EPI: 0.063 µg/mL
  MIC of gatifloxacin with EPI: 0.063 µg/mL
  MIC of gentamicin with EPI: 0.125 µg/mL
  MIC of levofloxacin with EPI: 0.125 µg/mL
  MIC of norfloxacin with EPI: 0.25 µg/mL
S. aureus ATCC 29213 [2]; [13]
  Fold-reduction in EtBr MIC: 4
S. aureus ATCC 29213 [2]; ATCC29213, S. aureus ATCC 29213, EPI alone, read-out: MIC of EPI
  MIC: > 100 µg/mL
S. aureus ATCC 29213 [2]; ATCC29213, S. aureus ATCC 29213, EPI at 4X the MEC for EtBr, VX-710 at 100 μg/ml, read-out: MIC of EtBr with EPI
  MIC: 0.4 µg/mL
S. aureus ATCC 29213 [2]; ATCC29213, S. aureus ATCC 29213, EPIs used at the MEC, except VX-710 at 100 μg/ml, read-out: MIC of EtBr with EPI
  MIC: 1.6 µg/mL
S. aureus ATCC 29213 [2]; S. aureus ATCC 29213
  Fold-reduction in MIC: 1
S. pneumoniae ATCC 10015 [3]
  MEC of EPI: 25^c μg/ml
S. aureus ATCC 29213 [4]
  MEC of EPI: 6.3 µg/mL
E. faecalis ATCC 29212 [5]
  MEC of EPI: ≧100 μg/ml
S. pneumoniae ATCC 10015 [6]; [14]
  Fold-reduction in EtBr MIC: 50
S. pneumoniae ATCC 10015 [6]; S. pneumoniae, reserpine 25 μg/ml (maximal subinhibitory concentration)
  reduction in the MIC of EtBr: 50 fold
S. pneumoniae ATCC 10015 [6]; [15]
  MIC: 50 µg/mL
S. pneumoniae ATCC 10015 [6]; [16]
  MIC: 0.04 µg/mL
S. pneumoniae ATCC 10015 [6]; S. pneumoniae, read-out: MIC of EPI alone
  MIC: 50 µg/mL
E. faecalis ATCC 29212 [7]; [17]
  Fold-reduction in EtBr MIC: 8
E. faecalis ATCC 29212 [7]; [18]
  MIC: > 100 µg/mL
E. faecalis ATCC 29212 [7]; [19]
  MIC: 0.8 µg/mL
[8]; [20]
  MIC of gatifloxacin with EPI: 0.25 µg/mL
[8]; [21]
  MIC of ciprofloxacin with EPI: 0.5 µg/mL
  MIC of gatifloxacin with EPI: 0.125 µg/mL
  MIC of gentamicin with EPI: 0.125 µg/mL
  MIC of levofloxacin with EPI: 0.5 µg/mL
  MIC of norfloxacin with EPI: 4 µg/mL
[8]
  MIC: 0.8 µg/mL
  Fold-reduction in MIC: 2
